# In patent US10138255B2, “Piperazine derivatives as HIV protease inhibitors” (Merck Sharp & Dohme Corp., priority 2014, dated 2018):
# Test system: HIV-1 (H9IIIB strain)
# Test: Cell-Based HIV Infection Assay Using a Reporter (MT4-GFP cells)
# Details: Human immunodeficiency virus 1, inflection point (IP) of viral growth inhibition; MT4-GFP cells infected with HIV-1 H9IIIB; 50% normal human serum; mean of at least two independent experiments; read-out: Cell Based IP (50% NHS)
# Procedure, shortened: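 MT4-GFP cells (HIV LTR-driven GFP) bulk-infected with HIV-1 H9IIIB at low MOI for 24 h, washed, then exposed to compounds in RPMI plus 50% normal human serum, 0.4% DMSO. Infected cells counted at 24 and 48 h; R0 = 48 h/24 h ratio, inhibition normalised to DMSO and triple-drug control; IP from 4-parameter fit.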
row,SMILES,EC50
1,"COC(=O)N[C@H](C(=O)Nc1cccc(F)c1CCC1CNC2CCCS(=O)(=O)N1C2)[C@@H](c1ccc(F)cc1)c1cccc(C2CC2)c1 (stereo partly drawn) [Example 52, methyl [(1S,2S)-2-(3-cyclopropylphenyl)-1-({2-[2-(2,2-dioxido-2-thia-1,7-diazabicyclo[4.3.1]dec-9-yl)ethyl]-3-fluorophenyl}carbamoyl)-2-(4-fluorophenyl)ethyl]carbamate]",72 nM
2,"N[C@H](C(=O)Nc1cccc(F)c1CCC1CNC2CCCS(=O)(=O)N1C2)[C@@H](c1ccc(Cl)cc1)C1CCC(F)(F)CC1 (stereo partly drawn) [Example 53, (βR)-4-chloro-β-(4,4-difluorocyclohexyl)-N-{2-[2-(2,2-dioxido-2-thia-1,7-diazabicyclo[4.3.1]dec-9-yl)ethyl]-3-fluorophenyl}-L-phenylalaninamide]",24 nM
3,"CC1(C)CC([C@H](c2ccc(F)cc2)[C@H](N)C(=O)N[C@H]2CCC[C@@H]2CC[C@H]2CN[C@@H]3CCCS(=O)(=O)N2C3)CCO1 (stereo partly drawn) [Example 54, (βR)-β-(2,2-dimethyltetrahydro-2H-pyran-4-yl)-N-[(1S,2R)-2-{2-[(6R,9S)-2,2-dioxido-2-thia-1,7-diazabicyclo[4.3.1]dec-9-yl]ethyl}cyclopentyl]-4-fluoro-L-phenylalaninamide]",180 nM
4,"CC1(C)CC([C@H](c2ccc(Cl)cc2)[C@H](N)C(=O)N[C@H]2CCC[C@@H]2CC[C@H]2CN[C@@H]3CCCS(=O)(=O)N2C3)CCO1 (stereo partly drawn) [Example 55, (βR)-4-chloro-β-(2,2-dimethyltetrahydro-2H-pyran-4-yl)-N-[(1S,2R)-2-{2-[(6R,9S)-2,2-dioxido-2-thia-1,7-diazabicyclo[4.3.1]dec-9-yl]ethyl}cyclopentyl]-L-phenylalaninamide]",80 nM
5,"COC(=O)N[C@H](C(=O)N[C@H]1CCC[C@@H]1CC[C@H]1CN[C@@H]2CCCS(=O)(=O)N1C2)[C@@H](c1ccc(F)cc1)c1cc(F)cc(F)c1 [Example 56, methyl [(1S,2S)-2-(3,5-difluorophenyl)-1-{[(1S,2R)-2-{2-[(6R,9S)-2,2-dioxido-2-thia-1,7-diazabicyclo[4.3.1]dec-9-yl]ethyl}cyclopentyl]carbamoyl}-2-(4-fluorophenyl)ethyl]carbamate]",24 nM
6,"N[C@H](C(=O)N[C@H]1CCC[C@@H]1CC[C@H]1CN[C@@H]2CCCS(=O)(=O)N1C2)[C@@H](c1ccc(F)cc1)c1cc(F)cc(F)c1 [Example 57, (βS)-β-(3,5-difluorophenyl)-N-[(1S,2R)-2-{2-[(6R,9S)-2,2-dioxido-2-thia-1,7-diazabicyclo[4.3.1]dec-9-yl]ethyl}cyclopentyl]-4-fluoro-L-phenylalaninamide]",27 nM
7,"COC(=O)N[C@H](C(=O)N[C@H]1CCC[C@@H]1CC[C@H]1CN[C@@H]2CCCS(=O)(=O)N1C2)[C@@H](c1ccc(Cl)cc1)C1CCOCC1 [Example 58, methyl [(1S,2R)-2-(4-chlorophenyl)-1-{[(1S,2R)-2-{2-[(6R,9S)-2,2-dioxido-2-thia-1,7-diazabicyclo[4.3.1]dec-9-yl]ethyl}cyclopentyl]carbamoyl}-2-(tetrahydro-2H-pyran-4-yl)ethyl]carbamate]",59 nM
8,"N[C@H](C(=O)Nc1cccc(F)c1CCC1CNC2CCCS(=O)(=O)N1C2)[C@@H](c1ccc(F)cc1)c1ccc(C2CC2)cc1 (stereo partly drawn) [Example 59, (βR)-4-cyclopropyl-N-{2-[2-(2,2-dioxido-2-thia-1,7-diazabicyclo[4.3.1]dec-9-yl)ethyl]-3-fluorophenyl}-β-(4-fluorophenyl)-L-phenylalaninamide]",16 nM
9,"COC(=O)N[C@H](C(=O)Nc1cccc(F)c1CCC1CNC2CCCS(=O)(=O)N1C2)[C@@H](c1ccc(F)cc1)c1ccc(C2CC2)cc1 (stereo partly drawn) [Example 60, methyl [(1S,2R)-2-(4-cyclopropylphenyl)-1-({2-[2-(2,2-dioxido-2-thia-1,7-diazabicyclo[4.3.1]dec-9-yl)ethyl]-3-fluorophenyl}carbamoyl)-2-(4-fluorophenyl)ethyl]carbamate]",9.9 nM
